# Reference: patent publication US7488811B2, “Macrolide compounds endowed with antiinflammatory activity” (Zambon Group S.p.A., priority 2002, dated 2009)
# Experiments:
# [1] = test system: PMA-induced oedema in mouse ear; assay: Acute contact dermatitis: TPA (PMA)-induced ear oedema in mice; assay type: in vivo; details: CD1 mice, 500 μg/ear topical in TPDS 30 min before TPA 0.01%, 6 h
# Procedure: Groups of 5-6 CD1 mice (18-24 g) were used. • Administration of the compounds
# All the macrolide compounds were dissolved in Trans-phase Delivery System (TPDS), a vehicle formed by 10% benzyl alcohol, 40% acetone and 50% isopropanol.
# 15 microlitres of the compounds (500 μg), dissolved in TPDS, were applied topically to the inner surface of an ear; 30 minutes later, 12 microlitres of a solution of tetradecanoylphorbol acetate (TPA) at a concentration of 0.01% dissolved in acetone were applied to the same area.
# Six hours later, the animals were sacrificed by inhalation of CO2. • Evaluation of the results
# Two methods were used to evaluate the auricular oedema: • a) Weight of a given portion of auricular pinna. • b) Measurement of the auricular thickness using precision spring callipers.
# The degree of oedema was calculated by subtracting the weight or the thickness of the untreated ear from that of the contralateral treated ear. To determine the degree of remission of the oedema, the difference (weight or thickness) of the groups treated with TPA+macrolides was then compared with the groups treated with TPA alone.
# The activity of the macrolide compounds was measured by using the modified method of Zunic et al. (1998): MDL (Lysyl) GDP, a non-toxic muramyl dipeptide derivative inhibits cytokine production by activated macrophages and protects mice from phorbol ester- and oxazolone-induced inflammation (J. Invest. Dermatol., 111(1), 77-82).
# The data relating to erythromycin and azythromycin concern the treatment with a single dose of 500 μg/ear.
# [2] = test system: Staphylococcus aureus ATCC 29213; assay: Antibiotic activity, MIC in liquid medium; assay type: cell-based; details: ATCC29213, Staph. aureus ATCC 29213
# Procedure: (§1) The MIC values were determined in liquid earth according to the method described in “Manual of Clinical Microbiology, 7th edition (1999), American Society for Microbiology”.
# [3] = test system: Streptococcus pneumoniae ATCC 49619; assay: Antibiotic activity, MIC in liquid medium; assay type: cell-based; details: ATCC49619, Strep. pneum ATTC 49619
# Procedure: as §1
# [4] = test system: Enterococcus faecalis ATCC 29212; assay: Antibiotic activity, MIC or activity at 128 μg/ml; assay type: cell-based; details: Enter. faecalis ATCC 29212; for MIC: Enterococcus faecalis, ATCC29212
# Procedure: as §1
# [5] = Water solubility noted at work-up; assay type: physicochemical; details: remark in the work-up
# Procedure: Compound 19 was prepared from intermediate 28 (600 mg, 0.64 mmol) according to the procedures described for compound 1. Given that the product is water-soluble, the crude solid was dissolved in water (50′ ml) and washed with CH2Cl2 (3×20 ml). The solvent was evaporated from the aqueous phase under vacuum and dried to give compound 19 (480 mg, 95% yield) as a crystalline solid. • [M+1]^+ 775
# [6] = test system: LPS-induced accumulation of neutrophils in rat lungs; assay: LPS-induced pulmonary inflammation in rats (neutrophil count in bronchial fluid wash); assay type: in vivo; details: single oral dose 100, 40, 10 μmol/kg one hour before LPS 0.4 mg/kg endotracheal, 20 h, erythromycin: single oral dose 130 μmol/kg
# Procedure: B) LPS-Induced Pulmonary Inflammation in Rats • Administration
# The rats received endotracheally, via the peroral route, a single dose of 0.4 mg/kg of LPS (E. coli, serotype 026:6). The tracheal instillation was performed under anaesthesia with halothane and, 20 hours after the endotracheal administration of LPS/saline solution, the animals were sacrificed by means of an overdose of urethane. • Washing
# The lungs were washed with 4 aliquots of 5 ml each of saline solution with 10 IU ml^−1 heparin. The cell suspension was concentrated by low-speed centrifugation and the cell pellet was suspended. • Counting of the Cells and Differentiation.
# The total cell count was performed in a haemocytometer.
# The differential counting was performed on cytospin preparations stained with May-Grunwald-Giemsa (Tamaoki J., Tagaya E., Yamawaki I., Sakai, Nagai A., Konno K, 1995. Effect of erythromycin on endotoxin-induced microvascular leakage in the rat trachea and lungs. Am. J. Respir. Crit. Care Med., 151, 1582-8). The rats received the test compounds orally in doses of 100, 40 and 10 μmol/kg as a single administration dose orally one hour before exposure to LPS.
# ED50 value is the dose that induced a 50% reduction in the neutrophil count in the bronchial fluid wash.
# The data relating to erythromycin refers to an oral treatment with a single dose of 130 μmol/kg.
# [7] = test system: Staphylococcus aureus ATCC 6538; assay: Antibiotic activity at 128 μg/ml; assay type: cell-based; details: Staph. aureus ATCC 6538
# Procedure: as §1
# [8] = test system: Streptococcus pyogenes ATCC 19615; assay: Antibiotic activity at 128 μg/ml; assay type: cell-based; details: Strep. pyogenes ATTC 19615
# Procedure: as §1
# [9] = method a: weight of a given portion of auricular pinna
MIC [2] [µg/mL],MIC [3] [µg/mL],MIC [4] [µg/mL],Solubility in water [5],"MIC ([7]; Staphylococcus aureus, ATCC6538) [µg/mL]","MIC ([8]; Streptococcus pyogenes, ATCC19615) [µg/mL]",Compound,inhibition in vivo at 500 µg/ear ([1]; method b: auricular thickness by precision spring callipers) [%],"inhibition in vivo at 500 µg/ear [1, 9] [%]",ED50 (dose inducing 50% reduction in neutrophil count in bronchial fluid wash) [6],"ED50 ([6]; Rattus norvegicus, Neutrophil, read-out: ED50 (dose inducing 50% reduction in neutrophil count in bronchial fluid wash)) [µmol/kg]",Antibiotic activity at 128 μg/ml ([4]; 128 μg/ml),Antibiotic activity at 128 μg/ml ([7]; 128 μg/ml),Antibiotic activity at 128 μg/ml ([8]; 128 μg/ml)
> 128,16,> 128,water-soluble,,,CC[C@H]1OC(=O)[C@H](C)[C@@H](O)[C@H](C)[C@H](O[C@@H]2O[C@H](C)CC(N(C)C)[C@@H]2O)[C@](C)(O)C[C@@H](C)/C(=N\OCCNCCNCc2nccs2)[C@H](C)[C@H](O)[C@]1(C)O (some centres unmarked) [Compound 19],28.2,,,,,,
0.25,0.12,1,,0.25,0.12,"CC[C@H]1OC(=O)[C@H](C)[C@@H](O[C@H]2C[C@@](C)(OC)[C@@H](O)[C@H](C)O2)[C@H](C)[C@@H](O[C@@H]2O[C@H](C)C[C@H](N(C)C)[C@H]2O)[C@](C)(O)C[C@@H](C)C(=O)[C@H](C)[C@@H](O)[C@]1(C)O [Erythromycin, reference compound]",,42,Not active,,,,
> 128,> 128,> 128,,,,CC[C@H]1OC(=O)[C@H](C)[C@@H](O)[C@H](C)[C@@H](O[C@@H]2O[C@H](C)C[C@H](N(C)C(C)=O)[C@H]2O)C(C)(O)C[C@@H](C)[C@H](O)[C@H](C)[C@@H](O)[C@]1(C)O (some centres unmarked) [Compound 1],,65.6,,7,not active,not active,not active
